Measurements reported in US4221781A, “Synergistic penicillin-cephalosporin compositions and methods” (priority 1971, dated 1980).
Where two headings read alike, the source gives them in different places.

Experiments:
Proteus [1] = test: Example 9: in vitro MIC, serial dilution test, Proteus; format: cell-based
Procedure: (§1) Tryptose phosphate broth, containing the appropriate concentrations of the compounds or of the combination of them, was inoculated with 0.5×10^4 -5×10^4 organisms of the various microorganisms tested and incubated overnight at 37° C. Minimum inhibitory concentrations (M.I.C.) were taken as the concentrations of the compounds or of the combination at which no visible growth occurred.
(§2) Using the technique described in Example 1 the in vitro effect of combinations of 6-(D-α-aminophenylacetamido)-penicillanic acid (I) and 6-[(N,N-diethylformamidino)-N'-amino]penicillanic acid (VII) in the ratios 1:1, 1:2 and 2:1 against clinically isolated strains of Coliforma, Klebsiella-Enterobacter and Proteus was determined in serial dilution tests.

E.coli III [2] = test: Example 6: emergence of resistance, subculturing by serial twofold broth dilution; format: cell-based; details: Escherichia coli
Procedure: Subculturing using a serial twofold broth dilution technique was performed with 6-(D-α-amino-phenylacetamido)-penicillanic acid (I), 6-[(piperidyl-1)methyleneamino]penicillanic acid (IV) and a 1:1 combination of I+IV. As inocula were used bacteria from the tube with the highest concentration of compound still permitting visible growth to the naked eye after incubation at 37° C. overnight. The following increases in MIC-values were noted.

Proteus vulgaris = test: Example 1: in vitro M.I.C., serial dilution test, Proteus vulgaris; format: cell-based
Procedure: as §1

Proteus mirabilis = test: Example 1: in vitro M.I.C., serial dilution test, Proteus mirabilis; format: cell-based; details: Proteus mirabilis strain 35895; 37° C overnight
Procedure: as §1

Proteus [3] = test: Example 1: in vitro M.I.C., serial dilution test, Proteus; format: cell-based; details: 37° C overnight
Procedure: as §1

Klebsiella-Enterobacter [4] = test: Example 4: in vitro M.I.C., serial dilution test, Klebsiella-Enterobacter; format: cell-based
Procedure: as §1

Klebsiella-Enterobacter [5] = test: Example 9: in vitro MIC, serial dilution test, Klebsiella-Enterobacter; format: cell-based
Procedure: as §1, §2

Proteus [6] = test: Example 4: in vitro M.I.C., serial dilution test, Proteus; format: cell-based
Procedure: as §1

Coliforma = test: Example 9: in vitro MIC, serial dilution test, Coliforma; format: cell-based
Procedure: as §1, §2

E.coli III [7] = test: Example 3: in vivo activity, mean curative dose in mice infected with E.coli III; parameters: species or system female NMRI white mice; details: Escherichia coli, sc, 96 h, subcutaneous, read-out: CD50 (mean curative dose)
Procedure: The number of deaths in the various groups were recorded after 96 hours and the mean curative doses (CD50) were calculated. (In the table, LD50 gives the dilution of an overnight culture of the organism causing a 50% death rate in animals receiving no therapy; the number of LD50 -doses records the severity of the infections given to the animals.)

Coliform = test: Example 1: in vitro M.I.C., serial dilution test, coliforms; format: cell-based; details: 37° C overnight
Procedure: as §1

[8] = system: clinically isolated coliform; test: Example 7: emergence of resistance, subculturing by serial twofold broth dilution; format: cell-based
Procedure: Subculturing using a serial twofold broth dilution technique was performed with 6-(D-α-aminophenylacetamido)-penicillanic acid (I), 6-[(hexahydro-1H-azepin-1-yl)methyleneamino]penicillanic acid (II), and a 1:1 combination of I and II. The strain used was a clinically isolated coliform. As inocula were used bacteria from the tube with the highest concentration of compound still permitting visible growth to the naked eye after incubation at 37° C. overnight. The following increases in MIC values were noted.

CC1(C)S[C@@H]2[C@H](NC(=O)[C@H](N)c3ccccc3)C(=O)N2[C@H]1C(=O)O [I, 6-(D-α-aminophenylacetamido)penicillanic acid]
MIC (Proteus [1]): 3.12 mg/L
MIC (E.coli III [2]; passage 0): 1.56 mg/L
MIC (E.coli III [2]; passage 1): 6.25 mg/L
MIC (E.coli III [2]; passage 2): 25 mg/L
MIC (E.coli III [2]; passage 3): 50 mg/L
MIC (E.coli III [2]; passage 4): 50 mg/L
MIC (E.coli III [2]; passage 5): 100 mg/L
MIC (E.coli III [2]; passage 6): 100 mg/L
MIC (Proteus vulgaris): 50 mg/L
MIC (Proteus vulgaris; Proteus vulgaris A, 37° C overnight, read-out: M.I.C.): 0.78 mg/L
MIC (Proteus mirabilis): 25 mg/L
MIC (Proteus [3]; Proteus strain 12/70): 100 mg/L
MIC (Proteus [3]; Proteus strain 13/70): 100 mg/L
MIC (Proteus [3]; Proteus strain 20/70): > 100 mg/L
MIC (Klebsiella-Enterobacter [4]; Klebsiella-Enterobacter strain 1/70): 50 mg/L
MIC (Klebsiella-Enterobacter [4]; Klebsiella-Enterobacter strain 2/70, read-out: M.I.C.): 25 mg/L
MIC (Klebsiella-Enterobacter [4]; Klebsiella-Enterobacter strain 5/70): 100 mg/L
MIC (Klebsiella-Enterobacter [4]; Klebsiella-Enterobacter strain 7/70): > 100 mg/L
MIC (Klebsiella-Enterobacter [4]; Klebsiella-Enterobacter strain 9/70): 50 mg/L
MIC (Klebsiella-Enterobacter [4]; Klebsiella-Enterobacter strain 10/70): 50 mg/L
MIC (Klebsiella-Enterobacter [4]; Klebsiella-Enterobacter strain 431): 100 mg/L
MIC (Klebsiella-Enterobacter [5]; Klebsiella-Enterobacter strain 1): 50 mg/L
MIC (Klebsiella-Enterobacter [5]; Klebsiella-Enterobacter strain 5): 100 mg/L
MIC (Klebsiella-Enterobacter [5]; Klebsiella-Enterobacter strain 7): > 100 mg/L
MIC (Klebsiella-Enterobacter [5]; Klebsiella-Enterobacter strain 8, read-out: MIC): 25 mg/L
MIC (Proteus [6]; Proteus strain 4/70): 1.56 mg/L
MIC (Proteus [6]; Proteus strain 6/70, read-out: M.I.C.): 0.39 mg/L
MIC (Proteus [6]; Proteus strain 7/70): 1.56 mg/L
MIC (Proteus [6]; Proteus strain 9/70): 6.25 mg/L
MIC (Proteus [6]; Proteus strain 10/70): 1.56 mg/L
MIC (Coliforma; Coliforma strain 1): 1.56 mg/L
MIC (Coliforma; Coliforma strain 4): 3.12 mg/L
MIC (Coliforma; Coliforma strain 7): 1.56 mg/L
MIC (Coliforma; Coliforma strain 13): 3.12 mg/L
MIC (Coliforma; Coliforma strain 16): 3.12 mg/L
ED50 (E.coli III [7]; LD50 1.5·10^-3, 6.6 LD50-doses given): 5.5 mg/kg
ED50 (E.coli III [7]; LD50 8.1·10^-4, 1.2·10^4 LD50-doses given): 250 mg/kg
MIC (Coliform; Coliform strain 3/70): 1.56 mg/L
MIC (Coliform; Coliform strain 9/70): 3.12 mg/L
MIC (Coliform; Coliform strain 10/70): 3.12 mg/L
MIC (Coliform; Coliform strain 17/70): 3.12 mg/L
MIC ([8]; passage 7): 12.5 mg/L
MIC ([8]; passage 8): 12.5 mg/L
